Reference: PubChem BioAssay (NCI)
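Following 48 hours of exposure in 96-well plates, responses at five concentrations were used to interpolate endpoints linearly. At the GI50, growth is halved. TGI: concentration producing complete growth inhibition.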

Columns and labels:
Assay in all cases: inhibition of tumour cell growth, NCI panel, 48 h
IGROV1 ovarian = tested on: IGROV1 ovarian
NCI-H23 lung = tested on: NCI-H23 lung
UO-31 renal = tested on: UO-31 renal
SF-295 CNS = tested on: SF-295 CNS
ACHN renal = tested on: ACHN renal
UACC-257 melanoma = tested on: UACC-257 melanoma
SF-268 CNS = tested on: SF-268 CNS
TK-10 renal = tested on: TK-10 renal
EKVX NSCLC = tested on: EKVX NSCLC
HS 578T breast = tested on: HS 578T breast
COLO 205 colon = tested on: COLO 205 colon
MDA-MB-231 breast = tested on: MDA-MB-231 breast
MDA-MB-435 = tested on: MDA-MB-435
OVCAR-5 ovarian = tested on: OVCAR-5 ovarian
RPMI-8226 leukemia = tested on: RPMI-8226 leukemia
BT-549 breast = tested on: BT-549 breast
SK-MEL-28 melanoma = tested on: SK-MEL-28 melanoma
KM12 colon = tested on: KM12 colon
OVCAR-8 ovarian = tested on: OVCAR-8 ovarian
CAKI-1 renal = tested on: CAKI-1 renal
A498 renal = tested on: A498 renal
SK-OV-3 ovarian = tested on: SK-OV-3 ovarian
NCI-H460 lung = tested on: NCI-H460 lung
SF-539 CNS = tested on: SF-539 CNS
LOX IMVI melanoma = tested on: LOX IMVI melanoma
K-562 leukemia = tested on: K-562 leukemia
HCT-116 colon = tested on: HCT-116 colon
SR leukemia = tested on: SR leukemia
SW-620 colon = tested on: SW-620 colon
MALME-3M melanoma = tested on: MALME-3M melanoma
SK-MEL-2 melanoma = tested on: SK-MEL-2 melanoma
HT29 colon = tested on: HT29 colon
RXF 393 renal = tested on: RXF 393 renal
U251 CNS = tested on: U251 CNS
HL-60(TB) leukemia = tested on: HL-60(TB) leukemia
CCRF-CEM leukemia = tested on: CCRF-CEM leukemia
UACC-62 melanoma = tested on: UACC-62 melanoma
HCC-2998 colon = tested on: HCC-2998 colon
HOP-92 NSCLC = tested on: HOP-92 NSCLC
786-0 renal = tested on: 786-0 renal
SN12C renal = tested on: SN12C renal
HCT-15 colon = tested on: HCT-15 colon
T-47D breast = tested on: T-47D breast
A549 NSCLC = tested on: A549 NSCLC
NCI-H522 lung = tested on: NCI-H522 lung
MOLT-4 leukemia = tested on: MOLT-4 leukemia
PC-3 prostate = tested on: PC-3 prostate
OVCAR-4 ovarian = tested on: OVCAR-4 ovarian
MCF7 breast = tested on: MCF7 breast
HOP-62 NSCLC = tested on: HOP-62 NSCLC
SNB-75 CNS = tested on: SNB-75 CNS
SNB-19 CNS = tested on: SNB-19 CNS
M14 melanoma = tested on: M14 melanoma
NCI/ADR-RES ovarian = tested on: NCI/ADR-RES ovarian
NCI-H226 lung = tested on: NCI-H226 lung
DU-145 prostate = tested on: DU-145 prostate

With `CS(=O)(=O)Nc1cc(-c2ccc3ncc(C#N)c(NCc4ccccc4O)c3c2)cnc1Cl` the GI50 (IGROV1 ovarian) was 229 nM, the TGI (IGROV1 ovarian) was 1290 nM and the GI50 (NCI-H23 lung) was 600 nM. For the same molecule, the TGI (NCI-H23 lung) was 15800 nM, the GI50 (UO-31 renal) was 417 nM and the TGI (UO-31 renal) was greater than 25900 nM. The GI50 (SF-295 CNS) was 681 nM, the TGI (SF-295 CNS) was 5190 nM and the GI50 (ACHN renal) was 1700 nM. It also gave a TGI (ACHN renal) greater than 63000 nM, a GI50 (UACC-257 melanoma) of 736 nM and a TGI (UACC-257 melanoma) of 7060 nM. It also gave a GI50 (SF-268 CNS) of 248 nM, a TGI (SF-268 CNS) of 3120 nM and a GI50 (TK-10 renal) of 375 nM. For the same molecule, the TGI (TK-10 renal) was 3420 nM, the GI50 (EKVX NSCLC) was 1200 nM and the TGI (EKVX NSCLC) was 7100 nM. It also gave a GI50 (HS 578T breast) of 118 nM, a TGI (HS 578T breast) of 612 nM and a GI50 (COLO 205 colon) of 674 nM. For the same molecule, the TGI (COLO 205 colon) was 2260 nM, the GI50 (MDA-MB-231 breast) was 585 nM and the TGI (MDA-MB-231 breast) was 4040 nM. It also gave a GI50 (MDA-MB-435) of 539 nM, a TGI (MDA-MB-435) of 9850 nM and a GI50 (OVCAR-5 ovarian) of 1330 nM. The TGI (OVCAR-5 ovarian) was 19000 nM, the GI50 (RPMI-8226 leukemia) was 609 nM and the TGI (RPMI-8226 leukemia) was 3390 nM. The GI50 (BT-549 breast) was 167 nM, the TGI (BT-549 breast) was 1340 nM and the GI50 (SK-MEL-28 melanoma) was 387 nM. For the same molecule, the TGI (SK-MEL-28 melanoma) was 7380 nM, the GI50 (KM12 colon) was 652 nM and the TGI (KM12 colon) was 7060 nM. It also gave a GI50 (OVCAR-8 ovarian) of 718 nM, a TGI (OVCAR-8 ovarian) of 16800 nM and a GI50 (CAKI-1 renal) of 325 nM. For the same molecule, the TGI (CAKI-1 renal) was 2910 nM, the GI50 (A498 renal) was 227 nM and the TGI (A498 renal) was 835 nM. For the same molecule, the GI50 (SK-OV-3 ovarian) was 612 nM, the TGI (SK-OV-3 ovarian) was 3680 nM and the GI50 (NCI-H460 lung) was 1420 nM. The TGI (NCI-H460 lung) was 18400 nM, the GI50 (SF-539 CNS) was 400 nM and the TGI (SF-539 CNS) was 3200 nM. It also gave a GI50 (LOX IMVI melanoma) of 397 nM, a TGI (LOX IMVI melanoma) of 2180 nM and a GI50 (K-562 leukemia) of 465 nM. It also gave a TGI (K-562 leukemia) greater than 100000 nM, a GI50 (HCT-116 colon) of 408 nM and a TGI (HCT-116 colon) of 2960 nM. For the same molecule, the GI50 (SR leukemia) was 231 nM, the TGI (SR leukemia) was greater than 100000 nM and the GI50 (SW-620 colon) was 470 nM. It also gave a TGI (SW-620 colon) of 6960 nM, a GI50 (MALME-3M melanoma) of 184 nM and a TGI (MALME-3M melanoma) of 1150 nM. The GI50 (SK-MEL-2 melanoma) was 175 nM, the TGI (SK-MEL-2 melanoma) was 554 nM and the GI50 (HT29 colon) was 1090 nM. For the same molecule, the TGI (HT29 colon) was 8630 nM, the GI50 (RXF 393 renal) was 212 nM and the TGI (RXF 393 renal) was 1280 nM. It also gave a GI50 (U251 CNS) of 300 nM, a GI50 (HL-60(TB) leukemia) of 808 nM and a TGI (HL-60(TB) leukemia) of 21700 nM. It also gave a GI50 (CCRF-CEM leukemia) of 243 nM, a TGI (CCRF-CEM leukemia) greater than 100000 nM and a GI50 (UACC-62 melanoma) of 282 nM. It also gave a TGI (UACC-62 melanoma) of 2580 nM, a GI50 (HCC-2998 colon) of 745 nM and a TGI (HCC-2998 colon) of 6510 nM. For the same molecule, the GI50 (HOP-92 NSCLC) was 117 nM, the TGI (HOP-92 NSCLC) was 725 nM and the GI50 (786-0 renal) was 693 nM. It also gave a TGI (786-0 renal) greater than 100000 nM, a GI50 (SN12C renal) of 450 nM and a TGI (SN12C renal) greater than 65000 nM. The GI50 (HCT-15 colon) was 516 nM, the TGI (HCT-15 colon) was 12000 nM and the GI50 (T-47D breast) was 122 nM. The TGI (T-47D breast) was 4970 nM, the GI50 (A549 NSCLC) was 1960 nM and the TGI (A549 NSCLC) was 13000 nM. It also gave a GI50 (NCI-H522 lung) of 460 nM, a TGI (NCI-H522 lung) of 6260 nM and a GI50 (MOLT-4 leukemia) of 418 nM. For the same molecule, the TGI (MOLT-4 leukemia) was greater than 100000 nM, the GI50 (PC-3 prostate) was 531 nM and the TGI (PC-3 prostate) was 13200 nM. For the same molecule, the GI50 (OVCAR-4 ovarian) was 468 nM, the TGI (OVCAR-4 ovarian) was 6410 nM and the GI50 (MCF7 breast) was 288 nM. For the same molecule, the TGI (MCF7 breast) was 9270 nM, the GI50 (HOP-62 NSCLC) was 480 nM and the TGI (HOP-62 NSCLC) was 13300 nM. The GI50 (SNB-75 CNS) was less than 37.8 nM, the TGI (SNB-75 CNS) was 743 nM and the GI50 (SNB-19 CNS) was 507 nM. It also gave a TGI (SNB-19 CNS) of 15100 nM, a GI50 (M14 melanoma) of 532 nM and a TGI (M14 melanoma) of 10900 nM. The GI50 (NCI/ADR-RES ovarian) was 3090 nM, the TGI (NCI/ADR-RES ovarian) was greater than 100000 nM and the GI50 (NCI-H226 lung) was 908 nM. For the same molecule, the TGI (NCI-H226 lung) was 32200 nM, the GI50 (DU-145 prostate) was 613 nM and the TGI (DU-145 prostate) was 12400 nM.
